# Reference: patent US5629322A, “Cyclic amidine analogs as inhibitors of nitric oxide synthase” (priority 1995, dated 1997)
# Counter-ions that a name gives are not always drawn. Like-named read-outs stand apart in the source and are kept apart here.
# Key:
# ecNOS = ecNOS (Homo sapiens, UniProt P29474); test: NOS activity assay, ecNOS (L-[3H]citrulline formation); type: biochemical
# Protocol: (§1) Assay Protocol for NOS activity
# (§2) NOS activity is measured as the formation of L-[2,3,4,5-^3 H]Citrullinefrom L-[2,3,4,5-^3 H]Arginine. The incubation buffer (100 μL) contained; 100 mM TES, pH 7.5, 5 μM FAD, 5 μM FMN, 10 μM BH4, 0.5 mM NADPH, 0.5 mM DTT, 0.5 mg/mL BSA, 2 mM CaCl2, 10 μg/mL calmodulin (bovine), 1 μM L-Arg, 0.2 μCi L-[2,3,4,5-^3 H]Arg, and the inhibitor in aqueous DMSO (max. 5%). The reaction is initiated by addition of enzyme. Incubations are performed at room temperature for 30 minutes and stopped by the addition of an equal volume of quenching buffer consisting of 200 mM sodium citrate, pH 2.2, 0.02% sodium azide. Reaction products are separated by passing through a cation exchange resin and quantitated as cpm by scintillation counting.
# ncNOS = ncNOS (Homo sapiens, UniProt P29475); test: biochemical
# iNOS = iNOS (Homo sapiens, UniProt P35228); test: NOS activity assay, iNOS (L-[3H]citrulline formation); type: biochemical
# Protocol: as §1, §2
# ncNOS, sequence (P29475 whole entry): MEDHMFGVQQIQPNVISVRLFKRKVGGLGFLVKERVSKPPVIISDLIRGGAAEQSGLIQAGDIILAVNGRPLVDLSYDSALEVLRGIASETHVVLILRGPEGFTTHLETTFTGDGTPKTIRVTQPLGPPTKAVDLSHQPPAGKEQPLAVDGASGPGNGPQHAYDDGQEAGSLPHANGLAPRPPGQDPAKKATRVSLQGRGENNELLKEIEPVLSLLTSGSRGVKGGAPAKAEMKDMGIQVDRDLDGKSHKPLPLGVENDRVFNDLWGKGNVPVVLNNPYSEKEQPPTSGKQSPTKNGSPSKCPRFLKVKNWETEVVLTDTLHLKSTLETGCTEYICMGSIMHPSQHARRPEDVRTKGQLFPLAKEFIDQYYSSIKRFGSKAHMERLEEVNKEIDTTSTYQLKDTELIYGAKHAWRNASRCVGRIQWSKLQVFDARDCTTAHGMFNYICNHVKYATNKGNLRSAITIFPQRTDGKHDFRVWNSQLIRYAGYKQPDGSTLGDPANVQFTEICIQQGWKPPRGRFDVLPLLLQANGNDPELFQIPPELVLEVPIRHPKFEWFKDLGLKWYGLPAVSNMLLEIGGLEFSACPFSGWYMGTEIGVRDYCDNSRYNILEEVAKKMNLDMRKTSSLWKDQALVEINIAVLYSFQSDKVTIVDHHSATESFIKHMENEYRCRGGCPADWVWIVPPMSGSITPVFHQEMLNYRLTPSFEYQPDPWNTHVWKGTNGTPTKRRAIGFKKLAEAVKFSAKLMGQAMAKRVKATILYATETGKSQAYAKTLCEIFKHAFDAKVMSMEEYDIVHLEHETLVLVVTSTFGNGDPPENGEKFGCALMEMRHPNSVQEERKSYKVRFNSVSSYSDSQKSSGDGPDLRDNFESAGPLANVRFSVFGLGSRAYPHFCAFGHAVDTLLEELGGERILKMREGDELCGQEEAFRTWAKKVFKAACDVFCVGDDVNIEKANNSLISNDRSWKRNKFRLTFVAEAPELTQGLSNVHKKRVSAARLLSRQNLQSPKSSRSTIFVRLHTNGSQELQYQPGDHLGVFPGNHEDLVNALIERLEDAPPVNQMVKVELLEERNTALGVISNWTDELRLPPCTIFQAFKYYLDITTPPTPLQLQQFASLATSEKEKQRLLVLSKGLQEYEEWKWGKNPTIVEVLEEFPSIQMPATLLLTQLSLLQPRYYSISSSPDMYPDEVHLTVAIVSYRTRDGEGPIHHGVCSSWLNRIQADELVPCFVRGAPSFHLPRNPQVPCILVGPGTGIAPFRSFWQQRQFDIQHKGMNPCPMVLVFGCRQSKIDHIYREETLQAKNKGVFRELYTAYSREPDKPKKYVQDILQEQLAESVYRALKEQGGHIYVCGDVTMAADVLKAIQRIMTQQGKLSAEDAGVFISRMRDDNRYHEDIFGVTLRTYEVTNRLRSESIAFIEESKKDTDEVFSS
SMILES,"IC50 (ecNOS; Table 5, read-out: IC50 ecNOS) [µM]","IC50 (ncNOS; Table 5, read-out: IC50 ncNOS) [µM]","IC50 (iNOS; Table 5, read-out: IC50 iNOS) [µM]","IC50 (ecNOS; Table 4, read-out: IC50 ecNOS) [µM]","IC50 (iNOS; Table 4, read-out: IC50 iNOS) [µM]",also measured
"CCCC1CCN=C(N)C1 (centres unmarked) [Table 5: CH, H, n-C3H7, H, H, H, H, 2-Imino-4-propylpiperidine hydrochloride]",> 50,> 50,≤ 10,–,–,–
"CCC1N=C(N)CC1C (centres unmarked) [Table 4: H, CH3, C2H5, H, H, 2-Imino-5-ethyl-4-methylpyrrolidine hydrochloride]",–,–,–,≤ 1,≤ 1,IC50 (ncNOS): ≤ 1 µM
"Oc1ccc(CCNC2=NCCC2)cc1O [Table 4: H, H, H, H, C2 H4 Ph-3,4-(OH)2, 1-Aza-2-((3,4-dihydroxyphenyl)ethyl)amino-1-cyclopentene hydrochloride]",–,–,–,> 50,> 50,"IC50 (ncNOS; Table 4, read-out: IC50 ncNOS): > 50 µM"
"CC(C)(C)OC(=O)N1CCNC(=N)C1 [Table 5: N, H, CO2-t-C4H9, H, H, H, H, 4-t-Butoxycarbonyl-2-iminopiperazine hydrochloride]",> 50,> 50,≤ 50,–,–,–
"C[C@@H]1CCNC(=N)C1 [Table 5: CH, H, (R)CH3, H, H, H, H, 4(R)-Methyl-2-iminopiperidine hydrochloride]",–,–,–,–,–,IC50 (iNOS): ≤ 1 µM
"C[C@H]1CCNC(=N)C1 [Table 5: CH, H, (S)CH3, H, H, H, H, 4(S)-Methyl-2-iminopiperidine hydrochloride]",–,–,–,–,–,IC50 (iNOS): ≤ 1 µM
"NC1=Nc2ccccc2CC1 [Table 5: CH2, H, H, (CH)4, H, H, 3,4-Dihydro-2-aminoquinoline hydrochloride]",> 50,≤ 10,≤ 50,–,–,–
"CC1CN=C(N)C1 (centres unmarked) [Table 4: H, CH3, H, H, H, 2-Imino-4-methylpyrrolidine hydrochloride]",–,–,–,–,–,IC50 (ecNOS): ≤ 10 µM; IC50 (ncNOS): ≤ 1 µM; IC50 (iNOS): ≤ 10 µM
"CCCC1CC(N)=NC1C (centres unmarked) [Table 4: H, n-C3H7, CH3, H, H, 2-Imino-5-methyl-4-propylpyrrolidine hydrochloride]",–,–,–,> 50,≤ 50,"IC50 (ncNOS; Table 4, read-out: IC50 ncNOS): ≤ 50 µM"
"CC1CCC(N)=NC1 (centres unmarked) [Table 5: CH2, H, H, CH3, H, H, H, 2-Imino-5-methylpiperidine hydrochloride]",–,–,–,–,–,IC50 (ecNOS): ≤ 10 µM; IC50 (iNOS): ≤ 1 µM
"CC1CC(N)=NC1C (centres unmarked) [Table 4: H, CH3, CH3, H, H, 2-Imino-4,5-dimethylpyrrolidine hydrochloride]",–,–,–,< 1,≤ 1,"IC50 (ncNOS; Table 4, read-out: IC50 ncNOS): < 1 µM"
"CCCC1N=C(N)CC1C (centres unmarked) [Table 4: H, CH3, n-C3H7, H, H, 2-Imino-4-methyl-5-propylpyrrolidine hydrochloride]",–,–,–,≤ 50,≤ 10,"IC50 (ncNOS; Table 4, read-out: IC50 ncNOS): ≤ 10 µM"
"CC1CCN=C1N (centres unmarked) [Table 4: CH3, H, H, H, H, 2-Imino-3-methylpyrrolidine hydrochloride]",–,–,–,≤ 10,≤ 10,IC50 (ncNOS): ≤ 1 µM
"CC1CCCN=C1N (centres unmarked) [Table 5: CH2, CH3, H, H, H, H, H, 2-Imino-3-methylpiperidine hydrochloride]",–,≤ 1,–,–,–,IC50 (ecNOS): ≤ 10 µM; IC50 (iNOS): ≤ 10 µM
"CC1CC(N)=NC1C (single isomer, unassigned) [Table 4: H, CH3, CH3(A), H, H]",–,–,–,≤ 1,≤ 1,"IC50 (ncNOS; Table 4, read-out: IC50 ncNOS): ≤ 1 µM"
"CC1CCN=C(N)C1 (centres unmarked) [Table 5: CH, H, CH3, H, H, H, H, 2-Imino-4-methylpiperidine hydrochloride]",–,–,–,–,–,IC50 (iNOS): ≤ 1 µM
"N=C1CNC2CCCCC2N1 (centres unmarked) [Table 5: N, H, H, (CH2)4, H, H]",–,≤ 50,–,–,–,IC50 (ecNOS): > 50 µM; IC50 (iNOS): ≤ 10 µM
"CC(C)C1CN=C(N)C1 (centres unmarked) [Table 4: H, i-C3H7, H, H, H, 2-Imino-4-(2-methyl-ethyl)pyrrolidine hydrochloride]",–,–,–,> 50,≤ 10,"IC50 (ncNOS; Table 4, read-out: IC50 ncNOS): ≤ 50 µM"
"CCC1CC(N)=NC1C (centres unmarked) [Table 4: H, C2H5, CH3, H, H, 2-Imino-4-ethyl-5-methylpyrrolidine hydrochloride]",–,–,–,≤ 10,≤ 1,"IC50 (ncNOS; Table 4, read-out: IC50 ncNOS): ≤ 1 µM"
"CC1CCC(N)=N1 (centres unmarked) [Table 4: H, H, CH3, H, H, 2-Imino-5-methylpyrrolidine hydrochloride]",–,–,–,≤ 10,–,IC50 (ncNOS): ≤ 10 µM; IC50 (iNOS): ≤ 10 µM
"N=C1CN[C@@H]2CCCC[C@@H]2N1 (relative stereo) [Table 5: N, H, H, cis-(CH2)4, H, H, 2-Imino-decahydro-cis-quinoxaline]",–,> 50,–,–,–,IC50 (ecNOS): > 50 µM; IC50 (iNOS): ≤ 10 µM
"C[C@H]1CCC(=N)NC1 [Table 5: CH2, H, H, (S)CH3, H, H, H, 5(S)-Methyl-2-iminopiperidine hydrochloride]",–,–,–,–,–,IC50 (ecNOS): ≤ 10 µM; IC50 (iNOS): ≤ 10 µM
"N=C1CCCCN1 [Table 5: CH2, H, H, H, H, H, H, 2-Iminopiperidine hydrochloride]",–,–,–,–,–,IC50 (ecNOS): ≤ 1 µM; IC50 (iNOS): ≤ 1 µM
"CC1CC(N)=NC1C (single isomer, unassigned) [Table 4: H, CH3, CH3(B), H, H]",–,–,–,–,≤ 1,"IC50 (ncNOS; Table 4, read-out: IC50 ncNOS): ≤ 1 µM"
"C[C@@H]1CCC(=N)NC1 [Table 5: CH2, H, H, (R)CH3, H, H, H, 5(R)-Methyl-2-iminopiperidine hydrochloride]",–,–,–,–,–,IC50 (ecNOS): ≤ 10 µM; IC50 (iNOS): ≤ 1 µM

# Second part, led by results:
"IC50 (ecNOS; Table 5, read-out: IC50 ecNOS) [µM]","IC50 (ncNOS; Table 5, read-out: IC50 ncNOS) [µM]","IC50 (iNOS; Table 5, read-out: IC50 iNOS) [µM]","IC50 (ecNOS; Table 4, read-out: IC50 ecNOS) [µM]","IC50 (iNOS; Table 4, read-out: IC50 iNOS) [µM]",SMILES,also measured
≤ 10,≤ 1,≤ 1,–,–,"N=C1CSCCN1 [Table 5: S, H, --, H, H, H, H, 3-Iminothiomorpholine hydrochloride]",–
≤ 10,≤ 1,≤ 1,–,–,"N=C1CC[C@@H]2CCCC[C@H]2N1 (relative stereo) [Table 5: CH2, H, H, trans-(CH2)4, H, H, trans-Decahydro-2-iminoquinoline hydrochloride]",–
≤ 10,≤ 10,≤ 1,–,–,"CCCOC1CCC(=N)NC1 (centres unmarked) [Table 5: CH2, H, H, O-n-C3H7, H, H, H, 2-Imino-5-n-propyloxy-piperidine, acetic acid salt]",–
–,–,–,≤ 50,≤ 50,"N=C1CC[C@H](CO)N1 [Table 4: H, H, (R)-CH2OH, H, H, 2-Imino-5-(R)-hydroxymethylpyrrolidine hydrochloride]","IC50 (ncNOS; Table 4, read-out: IC50 ncNOS): ≤ 50 µM"
> 50,≤ 50,≤ 50,–,–,"N=C1CNCCN1 [Table 5: N, H, H, H, H, H, H, 2-Iminopiperazine hydrochloride]",–
> 50,≤ 50,≤ 10,–,–,"COC(=O)C1CNC(=N)CC1C (mixture of isomers) [Table 5: CH, H, CH3, CO2CH3, H, H, H, cis/trans-2-Imino-4-methyl-piperidine-5-carboxylic acid, methyl ester, acetic acid salt]",–
≤ 50,≤ 1,≤ 1,–,–,"NC1=N[C@H]2CCCC[C@H]2CC1 (relative stereo) [Table 5: CH2, H, H, cis-(CH2)4, H, H, cis-Decahydro-2-iminoquinoline hydrochloride]",–
≤ 10,≤ 1,≤ 1,–,–,"C[C@H]1CC(=N)NC[C@H]1O [Table 5: CH, H, (S)CH3, (S)OH, H, H, H, 2-Imino-5(S)-hydroxy-4(S)-methyl-piperidine, hydrochloride]",–
> 50,> 50,> 50,–,–,"CC1CC(=N)NCC1C1CCCCC1 (mixture of isomers) [cis/trans-5-Cyclohexyl-2-imino-4-methyl-piperidine, acetic acid salt]",–
–,–,–,≤ 50,≤ 50,"N=C1NCCC1S (centres unmarked) [Table 4: SH, H, H, H, H]","IC50 (ncNOS; Table 4, read-out: IC50 ncNOS): ≤ 1 µM"
≤ 1,≤ 1,≤ 1,–,–,"CC1CNC(=N)CC1C (centres unmarked) [Table 5: CH, H, CH3, CH3, H, H, H]",–
–,–,–,> 50,≤ 10,"N=C1CC[C@@H](CO)N1 [Table 4: H, H, (S)-CH2OH, H, H, 2-Imino-5-(S)-hydroxymethylpyrrolidine hydrochloride]","IC50 (ncNOS; Table 4, read-out: IC50 ncNOS): ≤ 50 µM"
–,–,–,> 50,≤ 50,"CC(=O)OC[C@@H]1CCC(=N)N1 [Table 4: H, H, (S)-CH2OAc, H, H, 2-Imino-5-(S)-acetyloxymethylpyrrolidine hydrochloride]","IC50 (ncNOS; Table 4, read-out: IC50 ncNOS): ≤ 10 µM"
> 50,≤ 50,≤ 50,–,–,"CCC[C@@H]1C(=N)NCC[C@@H]1C (relative stereo) [Table 5: CH, n-C3H7, CH3, H, H, H, H, cis-2-Imino-4-methyl-3-n-propyl-piperidine, hydrochloride]",–
≤ 50,≤ 10,≤ 50,–,–,"CC[C@@H]1C(=N)NCC[C@@H]1C (relative stereo) [Table 5: CH, C2H5, CH3, H, H, H, H, cis-3-Ethyl-2-imino-4-methyl-piperidine, hydrochloride]",–
≤ 50,≤ 1,≤ 50,–,–,"CC1CNC(=N)C(C)C1 (centres unmarked) [Table 5: CH2, CH3, H, CH3, H, H, H, 2-Imino-3,5-dimethylpiperidine hydrochloride]",–
> 50,> 50,≤ 10,–,–,"N=C1CCC(C(F)(F)F)CN1 (centres unmarked) [Table 5: CH2, H, H, CF3, H, H, H, 2-Imino-5-trifluoro-piperidine]",–
–,–,–,–,≤ 50,"O=C(O)C1CCC(=NC2NCCS2)N1 (centres unmarked) [Table 4: H, H, CO2H, H, 2-thiazolidinyl]",–
